According to PMC7998855 (Toxins, 2021):
Several values for one entry are separate records, joined by “and”; a condition that tells them apart may be missing. Equal entries are not always repeated.

How the values were obtained:
[1] = system: tight junction protein claudin-4 (CLD-4); assay: Immunofluorescence staining of claudin-4; type: cell-based, human; settings: 24 h, mean ± SD, 3 biological replicates, at least 9 optical fields
[2] = system: differentiated C2BBe1 cells; type: cell-based, human; settings: for TEER, normalized to solvent control: SD
[3] = system: differentiated Caco-2 (C2BBe1) cells
mucin 5AC [4] = settings: 2 µM DON, 48 h incubation; cited from earlier work
Description: In addition to the investigation of barrier integrity, interest in the influence of mycotoxins on the intestinal mucus layer recently emerged, whereby data is still scarce. […] In addition to the different incubation times a ...

mucin 5AC [5] = assay: Immunofluorescence staining of mucin 5AC; type: cell-based, human; settings: 24 h, 3 biological replicates; for mucin 5AC fluorescence intensity compared to the solvent control: mean ± SD, SD
[6] = system: differentiated Caco-2 (C2BBe1) cell monolayer; type: cell-based, human; settings: 24 h incubation with toxin (CER 1-100 ng/mL, DON 0.1-10 µg/mL), then 0.1 mg/mL LY apical in HBSS pH 7.4, 1 h, 37 °C, basolateral fluorescence, 3 biological replicates
[7] = system: differentiated Caco-2 cells; assay: LC-MS/MS of CER in transwell compartments (uptake); type: in vitro ADME, human; settings: 24 h; for CER concentration in basolateral medium: apical application, mean ± SD, 3 biological replicates, SD

Compound | CLD-4 immunofluorescence intensity in comparison to the solvent control ([1]; 10 µg/mL DON) | TEER, normalized to solvent control [2] | DON concentration in cell lysates [3] | Detection of DON in apical medium, basolateral medium and cell lysates [3] | mucin 5AC in cell lysates of Caco-2 cells (mucin 5AC [4]) | mucin 5AC fluorescence intensity vs solvent control (mucin 5AC [5]; DON alone (1 and 10 µg/mL)) | Effect on paracellular passage of Lucifer Yellow [6] | CLD-4 immunofluorescence intensity in comparison to the solvent control ([1]; 10 ng/mL CER) | CLD-4 immunofluorescence intensity in comparison to the solvent control ([1]; 100 ng/mL CER) | TEER [2] | CER concentration in basolateral medium ([7]; 100 ng/mL CER with 10 µg/mL DON, transwell) | CER concentration in basolateral medium ([7]; 100 ng/mL CER without DON, transwell) | CER in cell lysates ([7]; 1-100 ng/mL CER with or without DON) | CER in the apical compartment ([7]; 1-100 ng/mL CER with or without DON, transwell) | mucin 5AC fluorescence intensity compared to the solvent control (mucin 5AC [5]; 10 ng/mL CER) | mucin 5AC fluorescence intensity compared to the solvent control (mucin 5AC [5]; 100 ng/mL CER)
CC1=C[C@H]2O[C@@H]3[C@H](O)C[C@](C)([C@@]2(CO)[C@H](O)C1=O)[C@]31CO1 [DON, deoxynivalenol] | 127 ± 38% | 116 ± 12% and 116 ± 6% | < LOD | detected in all compartments and incubation conditions, except the cell lysates treated with the lowest toxin concentration | upregulation of mucin 5AC | no significant effect | no significant effects | – | – | – | – | – | – | – | – | –
cereulide | – | 193 ± 7% and 163 ± 34% | – | – | – | – | no significant effects | 173 ± 41% | 138 ± 49% | no impact | 0.07 ± 0.05 ng/mL medium | 0.04 ± 0.02 ng/mL medium | detected in the cell lysates of all samples | quantified in all treatment conditions | 80 ± 14% | 73 ± 20%
